Experimental data reported in ChEMBL document CHEMBL1152999, “Synthesis and anti-HSV-1 evaluation of some pyrazoles and fused pyrazolopyrimidines” (2009).

Assays:
Human alphaherpesvirus 1 [1] = assay: Antiviral activity against HSV1 infected in african green monkey Vero cells assessed as reduction in virus plaque formation at 10 ug per 10^5 cells by plaque infectivity assay; assay type: functional; design: scale not given: the % may be the effect or the level left
Human alphaherpesvirus 1 [2] = assay: Antiviral activity against HSV1 infected in african green monkey Vero cells assessed as reduction in virus plaque formation at 20 ug per 10^5 cells by plaque infectivity assay; assay type: functional; design: scale not given: the % may be the effect or the level left

SMILES | Activity (Human alphaherpesvirus 1 [1]) | Activity (Human alphaherpesvirus 1 [2])
N#Cc1cnn(-c2ncnc3sc4c(c23)-c2ccccc2CC4)c1N | 16.6% | 0%
CC(=O)OC[C@@H](OC(C)=O)[C@H](OC(C)=O)[C@@H](OC(C)=O)[C@H](OC(C)=O)c1nc2c3cnn(-c4ncnc5sc6c(c45)-c4ccccc4CC6)c3ncn2n1 | 29% | 57%
Nc1ncnc2c1cnn2-c1ncnc2sc3c(c12)-c1ccccc1CC3 | 44.6% | 0%
CC(=O)Nc1c(C#N)cnn1-c1ncnc2sc3c(c12)-c1ccccc1CC3 | 0% | 67.6%
CC(=O)OC[C@@H](OC(C)=O)[C@H](OC(C)=O)[C@@H](OC(C)=O)[C@@H](/C=N/Nc1ncnc2c1cnn2-c1ncnc2sc3c(c12)-c1ccccc1CC3)OC(C)=O | 34% | 69%
N#Cc1cnn(-c2ncnc3sc4c(c23)-c2ccccc2CC4)c1NC=O | 28.5% | 48%
OC[C@@H](O)[C@H](O)[C@@H](O)[C@H](O)/C=N/Nc1ncnc2c1cnn2-c1ncnc2sc3c(c12)-c1ccccc1CC3 | 43% | 99%
Cc1nc2c(cnn2-c2ncnc3sc4c(c23)-c2ccccc2CC4)c(=O)[nH]1 | 44.4% | 0%
NNc1ncnc2c1cnn2-c1ncnc2sc3c(c12)-c1ccccc1CC3 | 56% | 0%
O=c1[nH]cnc2c1cnn2-c1ncnc2sc3c(c12)-c1ccccc1CC3 | 47.7% | 0%
Nc1nc2c(ncn2COCCO)c(=O)[nH]1 [ACYCLOVIR] | 12% | 28%
